Where a name gives a salt, the structure may show the parent alone.
These compounds were tested on C. albicans (assay: Broth microdilution assay of synergistic lethality with 4 μg/mL FLC (recovery on drug-free YPD)). Conditions: not given.
Format: cell-based, Candida albicans

Going from `Br.NC(=O)C(c1ccccc1)(c1ccccc1)[C@@H]1CCN(CCc2ccc3c(c2)CCO3)C1` [Darifenacin (hydrobromide)] to `CNCC[C@H](Oc1cccc2ccccc12)c1cccs1.Cl` [Duloxetine (hydrochloride)], the Synergistic lethal concentrations falls from 100 µM to 50 µM (2-fold).

Same assay, conditions: concentration of the compound that is synergistically lethal with 4 μg/mL FLC; C. albicans; recovery on drug-free YPD

Compared with `CN1CCC(=C2c3ccccc3C=Cc3ccccc32)CC1.CN1CCC(=C2c3ccccc3C=Cc3ccccc32)CC1.Cl.Cl.O.O.O`, `CN1CCC(=C2c3ccccc3C=Cc3ccccc32)CC1.Cl` [Cyproheptadine (hydrochloride)] is 2-fold lower in Synergistic lethal concentrations: 100 µM for the first, 50 µM for the second.

`CC=CC(=O)N(CC)c1ccccc1C` (mixture of isomers) [Crotamiton] and `CCOC(=O)c1cncn1[C@H](C)c1ccccc1.Cl` [Etomidate (hydrochloride)] are the same in Synergistic lethal concentrations: 100 µM for the first, 100 µM for the second.

`Cl.Cl.OCCN1CCN(CCC=C2c3ccccc3Sc3ccc(C(F)(F)F)cc32)CC1` (mixture of isomers) [Flupentixol dihydrochloride] and `CN(C)CC/C=C1/c2ccccc2Sc2ccc(Cl)cc21` [Chlorprothixene] are the same in Synergistic lethal concentrations: 100 µM for the first, 100 µM for the second.

`COC(=O)C1=C(C)NC(C)=C(C(=O)O[C@@H]2CCCN(Cc3ccccc3)C2)[C@@H]1c1cccc([N+](=O)[O-])c1.Cl` (racemic) [Benidipine (hydrochloride)] and `CCOC(=O)C1=C(C)NC(C)=C(C(=O)OC)C1c1cccc(Cl)c1Cl` (stereo not shown) [Felodipine] are the same in Synergistic lethal concentrations: 100 µM for the first, 100 µM for the second.

First: O=C(c1ccc(F)c(F)c1Nc1ccc(I)cc1F)N1CC(O)([C@@H]2CCCCN2)C1 (racemic) [Cobimetinib (racemate)]
Second: O=C(O)/C=C/C(=O)O.O=C(c1ccc(F)c(F)c1Nc1ccc(I)cc1F)N1CC(O)([C@@H]2CCCCN2)C1.O=C(c1ccc(F)c(F)c1Nc1ccc(I)cc1F)N1CC(O)([C@@H]2CCCCN2)C1 [Cobimetinib (hemifumarate)]
The Synergistic lethal concentrations of the first is 2-fold lower: 25 µM for the first, 50 µM for the second.

`Nc1c2ccccc2nc2ccccc12` [9-Aminoacridine] and `CC(O)C(=O)O.CCOc1ccc2nc3cc(N)ccc3c(N)c2c1.O` [Ethacridine (lactate monohydrate)] are the same in Synergistic lethal concentrations: 100 µM for the first, 100 µM for the second.

`CN(C)C/C=C/C(=O)Nc1cc2c(Nc3ccc(F)c(Cl)c3)ncnc2cc1O[C@H]1CCOC1.O=C(O)/C=C\C(=O)O.O=C(O)/C=C\C(=O)O` [Afatinib (dimaleate)] and `CN(C)C/C=C/C(=O)Nc1cc2c(Nc3ccc(F)c(Cl)c3)ncnc2cc1O[C@H]1CCOC1` [Afatinib] are the same in Synergistic lethal concentrations: 100 µM for the first, 100 µM for the second.

Going from `C=CC(=O)Nc1cc(Nc2nccc(-c3cn(C4CC4)c4ccccc34)n2)c(OC)cc1N(C)CCN(C)C.Cl` [Almonertinib (hydrochloride)] to `C=CC(=O)Nc1cc(Nc2nccc(-c3cn(C4CC4)c4ccccc34)n2)c(OC)cc1N(C)CCN(C)C` [Almonertinib], the Synergistic lethal concentrations rises from 12.5 µM to 25 µM (2-fold).

`CN(C)CCC=C1c2ccccc2CCc2ccccc21.Cl` [Amitriptyline (hydrochloride)] and `CN(C)CCC=C1c2ccccc2C=Cc2ccccc21.Cl` [Cyclobenzaprine (hydrochloride)] are the same in Synergistic lethal concentrations: 100 µM for the first, 100 µM for the second.

`CCOC(=O)C1=C(COCCN)NC(C)=C(C(=O)OC)C1c1ccccc1Cl.O=C(O)/C=C\C(=O)O` (stereo not shown) [Amlodipine (maleate)] and `CCOC(=O)C1=C(COCCN)NC(C)=C(C(=O)OC)C1c1ccccc1Cl` (stereo not shown) [Amlodipine] are the same in Synergistic lethal concentrations: 100 µM for the first, 100 µM for the second.

`CCC(C)(C)c1ccc(CC(C)CN2C[C@@H](C)O[C@@H](C)C2)cc1.Cl` (stereo partly shown) [Amorolfine (hydrochloride)] and `CCCCOc1ccc(CC(=O)NO)cc1` [Bufexamac] are the same in Synergistic lethal concentrations: 100 µM for the first, 100 µM for the second.

`Clc1ccc2c(c1)C(N1CCNCC1)=Nc1ccccc1O2` [Amoxapine] and `CN1CCN(C2=Nc3cc(Cl)ccc3Nc3ccccc32)CC1` [Clozapine] are the same in Synergistic lethal concentrations: 100 µM for the first, 100 µM for the second.

`CN(C)N(C)C(=O)[C@@]1(Cc2ccccc2)CCCN(C(=O)[C@@H](Cc2c[nH]c3ccccc23)NC(=O)C(C)(C)N)C1.Cl` [Anamorelin (hydrochloride)] and `CC(C)c1nc(CN(C)C(=O)N[C@@H](CCN2CCOCC2)C(=O)N[C@H](CC[C@H](Cc2ccccc2)NC(=O)OCc2cncs2)Cc2ccccc2)cs1` [Cobicistat] are the same in Synergistic lethal concentrations: 100 µM for the first, 100 µM for the second.

Compared with `CNCC[C@@H](Oc1ccccc1C)c1ccccc1.Cl` [Atomoxetine (hydrochloride)], `CN(C)[C@@H](CCOc1cccc2ccccc12)c1ccccc1.Cl` [Dapoxetine (hydrochloride)] is 2-fold lower in Synergistic lethal concentrations: 100 µM for the first, 50 µM for the second.

`CN1[C@@H]2CC[C@H]1C[C@@H](OC(c1ccccc1)c1ccccc1)C2.CS(=O)(=O)O` [Benztropine (mesylate)] and `C[N+](C)(CC(=O)Nc1ccccc1)CC(=O)Nc1ccccc1.[Cl-]` [Carcainium (chloride)] are the same in Synergistic lethal concentrations: 100 µM for the first, 100 µM for the second.

`CCN1CCN(c2cc(-c3ccc(F)cc3)c3c(n2)CCCCCC3)CC1` [Blonanserin] and `CN1CCN(c2ccc(C(=O)Nc3n[nH]c4ccc(Cc5cc(F)cc(F)c5)cc34)c(NC3CCOCC3)c2)CC1` [Entrectinib] are the same in Synergistic lethal concentrations: 50 µM for the first, 50 µM for the second.

Compared with `COc1cc(Nc2c(C#N)cnc3cc(OCCCN4CCN(C)CC4)c(OC)cc23)c(Cl)cc1Cl` [Bosutinib], `COc1cc2ncnc(Nc3ccc(F)c(Cl)c3)c2cc1NC(=O)/C=C/CN1CCCCC1` [Dacomitinib] is 4-fold higher in Synergistic lethal concentrations: 25 µM for the first, 100 µM for the second.

`Cc1ccc([C@@H]2O[C@H](CO)[C@@H](O)[C@H](O)[C@H]2O)cc1Cc1ccc(-c2ccc(F)cc2)s1.O` [Canagliflozin (hemihydrate)] and `Cc1ccc([C@@H]2O[C@H](CO)[C@@H](O)[C@H](O)[C@H]2O)cc1Cc1ccc(-c2ccc(F)cc2)s1` [Canagliflozin] are the same in Synergistic lethal concentrations: 100 µM for the first, 100 µM for the second.

`COc1ccccc1OCCNCC(O)COc1cccc2[nH]c3ccccc3c12` (stereo not shown) [Carvedilol] and `C[C@@H](NCCCc1cccc(C(F)(F)F)c1)c1cccc2ccccc12` [Cinacalcet] are the same in Synergistic lethal concentrations: 100 µM for the first, 100 µM for the second.

`Cc1cc(Nc2ncc(Cl)c(Nc3ccccc3S(=O)(=O)C(C)C)n2)c(OC(C)C)cc1C1CCNCC1.Cl.Cl` [Ceritinib dihydrochloride] and `Cc1cc(Nc2ncc(Cl)c(Nc3ccccc3S(=O)(=O)C(C)C)n2)c(OC(C)C)cc1C1CCNCC1` [Ceritinib] are the same in Synergistic lethal concentrations: 12.5 µM for the first, 12.5 µM for the second.

Going from `N=C(NCCCCCCNC(=N)NC(=N)Nc1ccc(Cl)cc1)NC(=N)Nc1ccc(Cl)cc1.O=C(O)[C@H](O)[C@@H](O)[C@H](O)[C@H](O)CO.O=C(O)[C@H](O)[C@@H](O)[C@H](O)[C@H](O)CO` [Chlorhexidine (digluconate)] to `CCCCCCOC(=O)NC(=N)c1ccc(NCc2nc3cc(C(=O)N(CCC(=O)OCC)c4ccccn4)ccc3n2C)cc1.CS(=O)(=O)O` [Dabigatran etexilate (mesylate)], the Synergistic lethal concentrations rises from 6.25 µM to 50 µM (8-fold).

`C[C@@H](NCCCc1cccc(C(F)(F)F)c1)c1cccc2ccccc12.Cl` [Cinacalcet (hydrochloride)] and `CNCCCN1c2ccccc2CCc2ccccc21` [Desipramine hydrochloride] are the same in Synergistic lethal concentrations: 100 µM for the first, 100 µM for the second.

First: Oc1c(I)cc(Cl)c2cccnc12 [Clioquinol]
Second: O=C(O)c1cc(-c2ccc(F)cc2F)ccc1O [Diflunisal]
The Synergistic lethal concentrations of the first is 8-fold lower: 12.5 µM for the first, 100 µM for the second.

Compared with `O=C(c1ccc(F)c(F)c1Nc1ccc(I)cc1F)N1CC(O)([C@@H]2CCCCN2)C1` [Cobimetinib], `Cc1ccc2c(c1)[C@]13CCCC[C@@H]1[C@H](C2)N(C)CC3.O=P(O)(O)O` [Dimemorfan (phosphate)] is 2-fold higher in Synergistic lethal concentrations: 50 µM for the first, 100 µM for the second.

`Cc1nc2c([nH]1)-c1ccccc1N(C(=O)c1ccc(NC(=O)c3ccccc3-c3ccccc3)cc1)CC2.Cl` [Conivaptan (hydrochloride)] and `O=C(CCCN1CC=C(n2c(=O)[nH]c3ccccc32)CC1)c1ccc(F)cc1` [Droperidol] are the same in Synergistic lethal concentrations: 100 µM for the first, 100 µM for the second.

`CC1CC(OC(=O)C(O)c2ccccc2)CC(C)(C)C1` (stereo not shown) [Cyclandelate] and `CC(C)[C@@]1(NC(=O)[C@@H]2C[C@@H]3c4cccc5[nH]cc(c45)C[C@H]3N(C)C2)O[C@@]2(O)[C@@H]3CCCN3C(=O)[C@H](Cc3ccccc3)N2C1=O.CS(=O)(=O)O` [Dihydroergocristine (mesylate)] are the same in Synergistic lethal concentrations: 100 µM for the first, 100 µM for the second.

First: CCCCCCOC(=O)N=C(N)c1ccc(NCc2nc3cc(C(=O)N(CCC(=O)OCC)c4ccccn4)ccc3n2C)cc1 [Dabigatran etexilate]
Second: CCCCc1oc2ccc(NS(C)(=O)=O)cc2c1C(=O)c1ccc(OCCCN(CCCC)CCCC)cc1 [Dronedarone]
The Synergistic lethal concentrations of the first is 16-fold lower: 6.25 µM for the first, 100 µM for the second.

`OCCN(CCO)c1nc(N2CCCCC2)c2nc(N(CCO)CCO)nc(N3CCCCC3)c2n1` [Dipyridamole] and `Cc1cnc(Nc2ccc(OCCN3CCCC3)cc2)nc1Nc1cccc(S(=O)(=O)NC(C)(C)C)c1` [Fedratinib] are the same in Synergistic lethal concentrations: 100 µM for the first, 100 µM for the second.

`CCN(CC)C(=S)SSC(=S)N(CC)CC` [Disulfiram] and `CCCCC(CC)COC(=O)CC(C(=O)OCC(CC)CCCC)S(=O)(=O)[O-].[Na+]` (stereo not shown) [Docusate (Sodium)] are the same in Synergistic lethal concentrations: 100 µM for the first, 100 µM for the second.

First: CCCCCCCCCCCC[N+](C)(C)CCOc1ccccc1.[Br-] [Domiphen (bromide)]
Second: CCCCc1oc2ccc(NS(C)(=O)=O)cc2c1C(=O)c1ccc(OCCCN(CCCC)CCCC)cc1.Cl [Dronedarone (Hydrochloride)]
The Synergistic lethal concentrations of the first is 510-fold lower: 0.1953 µM for the first, 100 µM for the second.

`O=c1[nH]c2ccccc2n1CCCN1CCC(n2c(=O)[nH]c3cc(Cl)ccc32)CC1` [Domperidone] and `C=CCc1ccc(O)c(OC)c1` [Eugenol] are the same in Synergistic lethal concentrations: 100 µM for the first, 100 µM for the second.
